Here are results for 1 molecule from patent US20100216795A1, “TNIK INHIBITOR AND THE USE” (priority 2008, published 2010).

Assay in all cases: Selectivity profiling, QuickScout STK Screening Panel
What all share (format): biochemical

In one assay the target is T1, AurA (Homo sapiens, UniProt O14965).
T1 construct: purchased Carna Biosciences
The procedure: (§1) The inhibitory effects of Compound 1 against 20 tyrosine kinases and 30 serine/threonine kinases were investigated using QuickScout™ TK and STK Screening Panel (Carna Biosciences, Kobe Japan). […] The results reveal that Compound 1 inhibits TNIK_N more potently (IC50; 9 nM) than the other 50 kinases.

The target in another assay is T2, CDK2 (Homo sapiens, UniProt P24941).
T2 construct: purchased Carna Biosciences
The procedure: as §1

The target in another assay is T3, CaMK4 (Homo sapiens, UniProt Q16566).
T3 construct: purchased Carna Biosciences
As for the experimental part:
as §1

Another assay deals with T4, DYRK1B (Homo sapiens, UniProt Q9Y463).
T4 construct: purchased Carna Biosciences
As for the experimental part: as §1

The target of the next assay is T5, Erk2 (Homo sapiens, UniProt P28482).
T5 construct: purchased Carna Biosciences
As for the experimental part: as §1

The next assay concerns the target T6, GSK3b (Homo sapiens, UniProt P49841).
T6 construct: purchased Carna Biosciences
The procedure: as §1

The next assay concerns the target T7, IRAK4 (Homo sapiens, UniProt Q9NWZ3).
T7 construct: purchased Carna Biosciences
The procedure: as §1

A further assay addresses T8, JNK2 (Homo sapiens, UniProt P45984).
T8 construct: purchased Carna Biosciences
As for the experimental part:
as §1

The target of the next assay is T9, MST1 (Homo sapiens, UniProt Q13043).
T9 construct: purchased Carna Biosciences
As for the experimental part:
as §1

In the next assay the target is T10, PKACa (Homo sapiens, UniProt P17612).
T10 construct: purchased Carna Biosciences
As for the experimental part:
as §1

The next assay addresses T11, PKCa (Homo sapiens, UniProt P17252).
T11 construct: purchased Carna Biosciences
As for the experimental part: as §1

For a further assay, the target named is T12, PKD2 (Homo sapiens, UniProt Q9BZL6).
T12 construct: purchased Carna Biosciences
As for the experimental part:
as §1

The target of the next assay is RAF1 (Homo sapiens, UniProt P04049). As for the experimental part: as §1
For another assay, the target named is T13, ROCK1 (Homo sapiens, UniProt Q13464).
T13 construct: purchased Carna Biosciences
The procedure: as §1

For the next assay, the target named is T14, SGK (Homo sapiens, UniProt O00141).
T14 construct: purchased Carna Biosciences
The procedure: as §1

The next assay concerns the target T15, p38a (Homo sapiens, UniProt Q16539).
T15 construct: purchased Carna Biosciences
As for the experimental part: as §1

Another assay has as its target T16, p70S6K (Homo sapiens, UniProt P23443).
T16 construct: purchased Carna Biosciences
As for the experimental part: as §1

T6 sequence (P49841 whole entry): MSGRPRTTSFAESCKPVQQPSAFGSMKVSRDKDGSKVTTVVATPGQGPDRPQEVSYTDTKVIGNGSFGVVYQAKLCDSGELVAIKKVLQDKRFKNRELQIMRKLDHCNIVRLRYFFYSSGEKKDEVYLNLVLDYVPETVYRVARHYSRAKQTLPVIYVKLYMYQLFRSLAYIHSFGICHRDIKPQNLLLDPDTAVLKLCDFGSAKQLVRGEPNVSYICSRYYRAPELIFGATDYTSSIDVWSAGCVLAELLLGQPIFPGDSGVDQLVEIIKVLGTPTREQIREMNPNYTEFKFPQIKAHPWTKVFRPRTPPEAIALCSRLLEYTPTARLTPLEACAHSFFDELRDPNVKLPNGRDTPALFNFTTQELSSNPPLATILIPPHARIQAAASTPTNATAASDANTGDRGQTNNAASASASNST
T8 sequence (P45984 whole entry): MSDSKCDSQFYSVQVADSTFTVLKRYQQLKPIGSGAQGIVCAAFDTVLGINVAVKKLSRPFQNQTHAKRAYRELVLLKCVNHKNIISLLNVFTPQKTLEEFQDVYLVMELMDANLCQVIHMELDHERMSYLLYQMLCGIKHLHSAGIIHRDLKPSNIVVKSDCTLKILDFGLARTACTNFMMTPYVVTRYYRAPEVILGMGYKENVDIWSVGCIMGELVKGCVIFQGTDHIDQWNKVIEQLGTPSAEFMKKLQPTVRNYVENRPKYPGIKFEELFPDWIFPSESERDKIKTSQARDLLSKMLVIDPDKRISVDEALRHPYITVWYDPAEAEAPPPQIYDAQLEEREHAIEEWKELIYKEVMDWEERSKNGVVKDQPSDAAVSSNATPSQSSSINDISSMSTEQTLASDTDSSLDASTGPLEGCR
Chain of RAF1 (P04049 whole entry Y340D/Y341D, form open): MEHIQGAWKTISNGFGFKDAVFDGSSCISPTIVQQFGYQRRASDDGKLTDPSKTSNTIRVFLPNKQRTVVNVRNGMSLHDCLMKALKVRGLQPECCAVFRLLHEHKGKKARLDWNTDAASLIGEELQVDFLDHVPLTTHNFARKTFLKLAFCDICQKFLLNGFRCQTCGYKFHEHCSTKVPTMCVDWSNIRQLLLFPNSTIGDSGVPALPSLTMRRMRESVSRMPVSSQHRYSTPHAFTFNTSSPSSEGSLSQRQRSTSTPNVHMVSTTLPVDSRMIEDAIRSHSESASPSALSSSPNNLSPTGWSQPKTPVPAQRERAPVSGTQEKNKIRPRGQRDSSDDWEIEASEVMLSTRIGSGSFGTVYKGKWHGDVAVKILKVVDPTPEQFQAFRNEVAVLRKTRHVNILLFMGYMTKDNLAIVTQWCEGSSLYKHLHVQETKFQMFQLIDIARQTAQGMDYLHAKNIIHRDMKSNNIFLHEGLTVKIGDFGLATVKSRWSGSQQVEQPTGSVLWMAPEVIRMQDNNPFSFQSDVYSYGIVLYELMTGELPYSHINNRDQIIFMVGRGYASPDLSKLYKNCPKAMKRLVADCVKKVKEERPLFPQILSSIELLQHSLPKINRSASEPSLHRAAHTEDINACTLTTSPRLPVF
T1 sequence (O14965 whole entry): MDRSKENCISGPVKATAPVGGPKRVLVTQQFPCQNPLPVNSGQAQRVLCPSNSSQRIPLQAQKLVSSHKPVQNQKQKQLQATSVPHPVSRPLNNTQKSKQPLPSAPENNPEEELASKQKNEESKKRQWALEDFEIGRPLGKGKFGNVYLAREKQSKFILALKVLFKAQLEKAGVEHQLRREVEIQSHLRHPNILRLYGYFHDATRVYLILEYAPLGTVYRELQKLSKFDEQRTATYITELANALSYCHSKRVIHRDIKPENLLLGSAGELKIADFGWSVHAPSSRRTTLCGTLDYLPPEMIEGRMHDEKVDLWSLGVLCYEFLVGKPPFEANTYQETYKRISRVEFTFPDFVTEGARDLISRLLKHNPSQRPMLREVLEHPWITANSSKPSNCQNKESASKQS
T4 sequence (Q9Y463 whole entry): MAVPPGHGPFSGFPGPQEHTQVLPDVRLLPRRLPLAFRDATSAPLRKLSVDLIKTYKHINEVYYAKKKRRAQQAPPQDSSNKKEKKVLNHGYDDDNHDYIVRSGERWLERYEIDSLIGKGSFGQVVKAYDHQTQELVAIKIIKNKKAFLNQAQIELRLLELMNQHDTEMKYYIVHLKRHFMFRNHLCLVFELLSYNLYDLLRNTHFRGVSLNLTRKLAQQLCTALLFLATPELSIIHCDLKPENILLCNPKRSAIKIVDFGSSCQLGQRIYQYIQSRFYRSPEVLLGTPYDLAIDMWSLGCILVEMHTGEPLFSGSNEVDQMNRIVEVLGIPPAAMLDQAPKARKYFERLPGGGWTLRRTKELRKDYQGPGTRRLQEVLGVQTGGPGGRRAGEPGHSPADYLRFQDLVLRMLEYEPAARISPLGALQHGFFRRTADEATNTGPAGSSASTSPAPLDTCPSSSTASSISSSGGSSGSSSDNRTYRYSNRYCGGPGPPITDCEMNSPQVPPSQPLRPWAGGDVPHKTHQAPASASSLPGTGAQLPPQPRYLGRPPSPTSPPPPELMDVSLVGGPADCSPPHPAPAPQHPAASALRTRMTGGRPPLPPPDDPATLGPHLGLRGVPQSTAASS
T5 sequence (P28482 whole entry): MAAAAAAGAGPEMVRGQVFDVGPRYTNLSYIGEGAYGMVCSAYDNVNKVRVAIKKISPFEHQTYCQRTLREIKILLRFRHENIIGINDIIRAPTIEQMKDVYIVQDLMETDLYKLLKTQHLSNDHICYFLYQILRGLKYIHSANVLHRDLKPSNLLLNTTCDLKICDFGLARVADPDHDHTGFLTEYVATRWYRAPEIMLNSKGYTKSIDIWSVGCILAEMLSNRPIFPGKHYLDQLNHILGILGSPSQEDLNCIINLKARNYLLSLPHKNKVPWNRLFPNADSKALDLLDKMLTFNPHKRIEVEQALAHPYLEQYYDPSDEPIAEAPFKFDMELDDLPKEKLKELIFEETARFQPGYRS
T7 sequence (Q9NWZ3 whole entry): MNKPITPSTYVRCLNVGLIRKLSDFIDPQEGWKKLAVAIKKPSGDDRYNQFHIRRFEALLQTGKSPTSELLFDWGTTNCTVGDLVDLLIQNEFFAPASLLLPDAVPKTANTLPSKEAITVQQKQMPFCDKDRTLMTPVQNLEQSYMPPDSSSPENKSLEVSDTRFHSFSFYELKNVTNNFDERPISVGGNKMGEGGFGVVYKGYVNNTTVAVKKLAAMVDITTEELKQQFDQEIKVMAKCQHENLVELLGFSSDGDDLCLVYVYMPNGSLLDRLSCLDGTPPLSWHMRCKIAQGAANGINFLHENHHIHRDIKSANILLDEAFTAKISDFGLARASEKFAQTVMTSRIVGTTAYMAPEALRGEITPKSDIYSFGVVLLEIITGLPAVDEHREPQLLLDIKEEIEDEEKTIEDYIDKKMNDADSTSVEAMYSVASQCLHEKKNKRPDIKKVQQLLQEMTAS
T15 sequence (Q16539 whole entry): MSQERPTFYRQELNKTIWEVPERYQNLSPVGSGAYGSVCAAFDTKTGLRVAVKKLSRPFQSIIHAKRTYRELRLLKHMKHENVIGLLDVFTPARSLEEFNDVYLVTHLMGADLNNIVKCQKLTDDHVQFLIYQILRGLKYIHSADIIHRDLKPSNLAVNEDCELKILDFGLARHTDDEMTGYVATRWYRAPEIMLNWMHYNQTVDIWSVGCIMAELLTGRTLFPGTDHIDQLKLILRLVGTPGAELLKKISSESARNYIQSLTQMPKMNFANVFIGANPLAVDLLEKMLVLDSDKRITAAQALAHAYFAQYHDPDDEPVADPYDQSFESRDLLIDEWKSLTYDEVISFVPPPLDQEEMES
T14 sequence (O00141 whole entry): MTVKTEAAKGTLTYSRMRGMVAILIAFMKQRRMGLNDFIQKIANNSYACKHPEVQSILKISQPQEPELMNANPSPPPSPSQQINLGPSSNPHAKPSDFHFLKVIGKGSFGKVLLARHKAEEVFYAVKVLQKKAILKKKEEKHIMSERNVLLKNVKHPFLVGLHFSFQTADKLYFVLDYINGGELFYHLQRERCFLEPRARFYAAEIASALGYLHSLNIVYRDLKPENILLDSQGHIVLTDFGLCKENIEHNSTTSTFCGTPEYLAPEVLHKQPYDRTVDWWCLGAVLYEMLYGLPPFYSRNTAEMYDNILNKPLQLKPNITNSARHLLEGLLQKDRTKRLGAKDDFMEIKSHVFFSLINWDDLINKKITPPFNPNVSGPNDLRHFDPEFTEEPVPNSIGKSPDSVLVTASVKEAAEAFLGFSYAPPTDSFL

Broadly, the IC50 is the midpoint of a concentration-inhibition curve. Read a low IC50 as higher potency. On to `CC(=O)Nc1ccc(C(=O)Nc2sc(Nc3ccccc3)nc2C(N)=O)cc1` [Compound 1, 5-(4-acetamidobenzamido)-2-(phenylamino)thiazole-4-carboxamide], for which the half-maximal inhibitory concentration (IC50) is 130 nM against AurA; more than 300 nM against CDK2; more than 300 nM against CaMK4; more than 300 nM on DYRK1B; more than 300 nM against Erk2; 120 nM on GSK3b. Besides, the IC50 on IRAK4, against JNK2, against MST1, against PKACa, against PKCa and at PKD2 was more than 300 nM throughout. For the same molecule, the concentration for half-maximal inhibition (IC50) on RAF1, on ROCK1, against SGK, against p38a and against p70S6K was more than 300 nM in each case.
